Laboratory results published in paper PMC5051719, “Fourth-Generation Progestins Inhibit 3β-Hydroxysteroid Dehydrogenase Type 2 and Modulate the Biosynthesis of Endogenous Steroids” (PLoS ONE, 2016).
Read-outs that look alike come from different tables or passages of the source.

How the values were obtained:
Assay type in all cases: cell-based
[1] = target: T1, 3β-hydroxysteroid dehydrogenase type 2 (3βHSD2) (Homo sapiens, UniProt P26439); test: pregnenolone to progesterone conversion kinetics in transfected COS-1 cells, UPLC-MS/MS
T1 construct: gene HSD3B2
T1 sequence (P26439 1-372): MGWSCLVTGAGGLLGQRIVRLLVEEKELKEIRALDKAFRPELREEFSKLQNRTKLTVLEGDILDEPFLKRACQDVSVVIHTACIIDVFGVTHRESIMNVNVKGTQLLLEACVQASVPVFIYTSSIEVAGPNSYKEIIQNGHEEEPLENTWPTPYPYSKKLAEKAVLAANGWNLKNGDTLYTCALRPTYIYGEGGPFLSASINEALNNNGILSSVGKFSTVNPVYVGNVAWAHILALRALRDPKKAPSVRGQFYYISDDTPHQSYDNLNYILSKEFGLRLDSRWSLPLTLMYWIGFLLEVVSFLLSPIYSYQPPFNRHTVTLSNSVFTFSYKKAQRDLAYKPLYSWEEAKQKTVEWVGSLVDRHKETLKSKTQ

[2] = target: T2, cytochrome P450 17α-hydroxylase/17,20 lyase (CYP17A1) (Homo sapiens, UniProt P05093); test: progesterone conversion in transfected COS-1 cells with […] inhibitor, UPLC-MS/MS
T2 construct: pIRES-hCYP17A1-V5-X-hCYPB5-6HIS expressed in COS-1 cells

[3] = target: T1, 3β-hydroxysteroid dehydrogenase type 2 (3βHSD2); test: Michaelis-Menten kinetics of conversion to progesterone in transfected COS-1 cells (Km), UPLC-MS/MS

T2 sequence (P05093 whole entry): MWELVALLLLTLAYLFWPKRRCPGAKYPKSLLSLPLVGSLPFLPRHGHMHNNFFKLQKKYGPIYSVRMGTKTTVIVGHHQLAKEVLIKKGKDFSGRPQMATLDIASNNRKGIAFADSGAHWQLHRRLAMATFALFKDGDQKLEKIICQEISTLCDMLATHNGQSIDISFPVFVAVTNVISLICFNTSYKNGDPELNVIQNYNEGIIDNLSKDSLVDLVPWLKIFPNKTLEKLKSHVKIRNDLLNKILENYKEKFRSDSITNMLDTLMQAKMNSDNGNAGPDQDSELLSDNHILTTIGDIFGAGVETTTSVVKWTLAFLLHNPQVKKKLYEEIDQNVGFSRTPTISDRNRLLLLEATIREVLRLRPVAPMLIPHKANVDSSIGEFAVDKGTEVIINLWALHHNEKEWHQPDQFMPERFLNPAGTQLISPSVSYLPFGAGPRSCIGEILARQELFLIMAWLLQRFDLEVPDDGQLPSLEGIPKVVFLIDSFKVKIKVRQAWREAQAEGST
T2 sequence (P00167 2-134, further chain): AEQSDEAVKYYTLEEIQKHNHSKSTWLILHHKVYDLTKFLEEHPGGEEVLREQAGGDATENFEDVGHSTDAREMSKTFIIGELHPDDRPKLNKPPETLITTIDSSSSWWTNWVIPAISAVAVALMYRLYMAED

| SMILES | Ki ([1]; read-out: Ki) [nM] | other results |
| --- | --- | --- |
| C[C@]12CCC(=O)C=C1[C@@H]1C[C@@H]1[C@H]1[C@@H]3[C@@H]4C[C@@H]4[C@@]4(CCC(=O)O4)[C@@]3(C)CC[C@@H]12 [DRSP, drospirenone] | 232 ± 38 | inhibition at 1 µM [2]: 55.2 ± 16.5% |
| C[C@]12CC[C@H]3[C@@H](CC[C@@]45O[C@@H]4C(O)=C(C#N)C[C@]35C)[C@@H]1CC[C@@H]2O [trilostane, reference compound] | – | Ki [1]: 31.3 ± 5.5 nM |
| CC(=O)[C@H]1CC[C@H]2[C@@H]3CC=C4C[C@@H](O)CC[C@]4(C)[C@H]3CC[C@]12C [Preg, pregnenolone] | – | Km [3]: 0.85 ± 0.05 µM |

Continued, in another order:

| Ki ([1]; read-out: Ki) [nM] | SMILES | other results |
| --- | --- | --- |
| 9.5 ± 0.96 | C=C1C[C@H]2[C@@H]3CCC4=CC(=O)CCC4[C@H]3CC[C@]2(C)C1(OC(C)=O)C(C)=O (stereo partly drawn) [NES, nestorone] | – |
| 29 ± 7.1 | CC(=O)O[C@]1(C(C)=O)CC[C@H]2[C@@H]3C=C(C)C4=CC(=O)CC[C@@H]4[C@H]3CC[C@@]21C [NoMAC, nomegestrol acetate] | – |
